{
  "source": "patent EP0643699B1",
  "about": "“6-(2-HYDROXYETHYLAMINOALKYL)-5,11-DIOXO-5,6-DIHYDRO-11H- INDENO[1,2-C]ISOQUINOLINES AND THEIR USE AS ANTINEOPLASTIC AGENTS” (priority 1991, dated 1993)",
  "key": {"Yoshida ascites cells": {"test_system": "Yoshida ascites cells", "assay": "Cytotoxicity: incorporation of [3H]thymidine and [14C]uridine into trichloroacetic acid-insoluble fraction of cells", "assay_type": "cell-based, Wistar rats", "source_text": "The degree of influence on the incorporation of [^3H]thymidine and [^14C]uridine into the fraction of Yoshida ascites cells insoluble in trichloroacetic acid serves as the measure of cytotoxicity."}, "Sa37 sarcoma": {"test_system": "Sa37 sarcoma", "assay": "Antitumour activity in S37 ascites sarcoma bearing mice (tumour weight, total ascitocrit, survival)", "assay_type": "in vivo, mice H", "conditions": "for mean value of the tumour weight in comparison with the untreated control group / mean value of tumour cell fraction in ascites fluid (total ascitocrit) in comparison with the untreated control group: eight daily doses; for Survival time (T/C, %) / Total ascitocrit (T/C, %) / Tumour weight (T/C, %): administered in four days", "source_text": "(§1) The antineoplastic activity of the compounds of the invention has been investigated testing the compounds of the chemical group \"in vivo\" against experimental rodent tumors such as the solid form of Ehrlich tumour (STE, originally mammary adenocarcinoma), tumor HK (also transplantable originally mammary adenocarcinoma), Krebs' ascites tumour (Kr2), S37 ascites sarcoma, Nemeth-Keller lymphoma (NK), all maintained in mice H, Gardner lymphosarcoma (LsG, maintained in mice C3H), P388 and/or L1210 leukemia (maintained in DBA2 mice), B16 metastasizing melanocarcinoma (maintained in C57B1/6 mice) and Yoshida ascites reticulosarcoma (Y, maintained in Wistar rats) in experiments according to Jelinek, V. [Neoplasma 12, 469 (1965); ibid 7, 146 (1960)] and in \"in vitro\" experiments using radioactive precursors of nucleic acids and proteins according to Miko, M. et al. [Cancer Res 39, 4242 (1979); Neoplasma 26, 449 (1979); ibid 16, 161 (1969)] with minor modifications [Mattern, J.: Studies on the Drug Sensitivity of Short Term Cultured Tumour Cell Suspensions. In \"Human Tumours in Short Term Culture\" (Dendy, P.P. ed.), p.301, Academic Press 1976]. The Cox's proportional-hazards model was used for survival evaluation and optimal dose calculation according to Carter, V.H. et al. [cf Cancer Res. 42, 2963 (1982)].\nEighty female mice H weighing approximately 20 g were divided into four groups: one control group and three experimental groups of 20 animal each. A lethal dose of the Sa37 sarcoma ascitic fluid was implanted intraperitoneally to all the animals. The animals of test groups were treated using the compound suspended in water. The suspension contained the substance in such a concentration that dose 0.6, 0.4 and/or 0.2ml of the suspension p.o. was equal to dose 240, 160 and/or 80 mg/kg p.o., respectively. The drug was administered to the experimental animals once, a day after tumour transplantation. On the tenth day after the tumour transplantation, half of the animals in each group were killed by ether anaesthesia, ascites were emptied after laparotomia and the tumour weight was assessed in all animals from the weight difference before and after laparotomia and ascites removing. In ascites fluid the volume of tumour cell fraction was determined. The remaining animals were left to monitor the time of death and survival time was followed. […] It was also observed that the treated animals survived longer than untreated control animals. […] The results of the experiment are summarized in the following table: Antitumour activity of 6-[2-(2-hydroxyethyl)aminoethyl]5,11-dioxo-5,6-dihydro-11H-indeno[1,2-c]isoquinoline (the substance I, X=2) in S37 sarcoma bearing mice.\nIn an analogous experiment carried out on the animals with implanted Sa37 sarcoma the substance I (X=2) was administered in seven daily doses, and the substance I (X=3) in four days. The results of the experiment are summarized in the following table: Antitumour activity of 6-[2-(2-hydroxyethyl)aminoethyl]5,11-dioxo-5,6-dihydro-11H-indeno[1,2-c]isoquinoline (the substance I, X=2) and 6-[3-(2-hydroxyethyl)aminopropyl]5,11-dioxo-5,6-dihydro-11H-indeno[1,2-c]isoquinoline (the substance I, X=3) in S37 bearing mice.\nIn an experiment carried out on the animals with implanted Sa37 sarcoma the substance I (X=0) was administered in eight daily doses (analogously as in example 6)."}, "Ehrlich tumour": {"test_system": "Ehrlich tumour", "assay": "Antitumour activity against solid form of Ehrlich tumour in mice (tumour weight, survival)", "assay_type": "in vivo, mice H", "source_text": "as §1\nSixty female mice H weighing approximately 20 g were divided into three groups: one control group and two experimental groups of 20 animal each. A lethal dose of the 40 Ehrlich tumour homogenate was implanted subcutaneously to all the animals. The animals of test groups were treated using the compounds suspended in water. […] On the fourteenth day after the tumour transplantation, half of the animals in each group were killed by ether anaesthesia, tumours were removed and weighed. The remaining animals were left to monitor the time of death and survival time was followed. […] It was also observed that the treated animals survived longer than untreated control animals."}, "leukemia P388": {"test_system": "leukemia P388", "assay": "Survival of mice with leukemia P388 after intravenous administration", "assay_type": "in vivo", "conditions": "mice DBA2 with leukemia P388", "source_text": "as §1, with “(1982)]. […]” for “(1982)].”"}},
  "note": "Where two headings read alike, the source gives them in different places. Marks after values point to notes of the source that are not given here.",
  "data": [
    {"compound": "COc1cccc2c1C(=O)c1c(O)c3c(c(O)c1C2=O)C[C@@](O)(C(=O)CO)C[C@@H]3O[C@H]1C[C@H](N)[C@H](O)[C@H](C)O1", "note": "[DOXORUBICIN]", "values": [
      {"measurement": "IC50", "setting": "Yoshida ascites cells; Rattus norvegicus, YOSHIDA, Precursor [6-3H]Thymidine", "value": 16, "unit": "µM"},
      {"measurement": "IC50", "setting": "Yoshida ascites cells; Rattus norvegicus, YOSHIDA, Precursor [Uracil-U-14C]uridine", "value": 8, "unit": "µM"}
    ]},
    {"compound": "O=C1c2ccccc2-c2c1c1ccccc1c(=O)n2NCCO", "note": "[I (X=0), 6-[(2-hydroxyethyl)amino]-5,11-dioxo-5,6-dihydro-11H-indeno[1,2-c]isoquinoline]", "values": [
      {"measurement": "mean value of the tumour weight in comparison with the untreated control group", "setting": "Sa37 sarcoma; 20 mg/kg s.c.", "value": 68, "unit": "%"},
      {"measurement": "mean value of tumour cell fraction in ascites fluid (total ascitocrit) in comparison with the untreated control group", "setting": "Sa37 sarcoma; 20 mg/kg s.c.", "value": 71, "unit": "%"},
      {"measurement": "mean value of the tumour weight in comparison with the untreated control group", "setting": "Sa37 sarcoma; 50 mg/kg p.o.", "value": 60, "unit": "%"},
      {"measurement": "mean value of tumour cell fraction in ascites fluid (total ascitocrit) in comparison with the untreated control group", "setting": "Sa37 sarcoma; 50 mg/kg p.o.", "value": 68, "unit": "%"},
      {"measurement": "mean tumour weight lowered by", "setting": "Ehrlich tumour; 50 mg/kg p.o. x 8, starting on the first day after tumour transplantation", "value": 13, "unit": "%"},
      {"measurement": "Mean survival time in comparison with the untreated control group", "setting": "Ehrlich tumour; eight daily doses of 25 mg/kg p.o.", "value": 115, "unit": "%"},
      {"measurement": "mean tumour weight in the treated animals in comparison with the untreated control group", "setting": "Ehrlich tumour; single dose of 100 mg/kg p.o.", "value": 72, "unit": "%"}
    ]},
    {"compound": "O=C1c2ccccc2-c2c1c1ccccc1c(=O)n2CCCNCCO", "note": "[I (X=3), 6-[3-(2-hydroxyethyl)aminopropyl]-5,11-dioxo-5,6-dihydro-11H-indeno[1,2-c]isoquinoline]", "values": [
      {"measurement": "Survival time (T/C, %)", "setting": "Sa37 sarcoma; 10 mg/kg p.o.", "value": 119, "unit": "%"},
      {"measurement": "Total ascitocrit (T/C, %)", "setting": "Sa37 sarcoma; 10 mg/kg p.o.", "value": "80^a) %"},
      {"measurement": "Tumour weight (T/C, %)", "setting": "Sa37 sarcoma; 10 mg/kg p.o.", "value": "70^b) %"},
      {"measurement": "Survival time (T/C, %)", "setting": "Sa37 sarcoma; 20 mg/kg p.o.", "value": 99, "unit": "%"},
      {"measurement": "Total ascitocrit (T/C, %)", "setting": "Sa37 sarcoma; 20 mg/kg p.o.", "value": "62^c) %"},
      {"measurement": "Tumour weight (T/C, %)", "setting": "Sa37 sarcoma; 20 mg/kg p.o.", "value": "56^c) %"},
      {"measurement": "Total ascitocrit (T/C, %)", "setting": "Sa37 sarcoma; 30 mg/kg p.o.", "value": "43^b) %"},
      {"measurement": "Tumour weight (T/C, %)", "setting": "Sa37 sarcoma; 30 mg/kg p.o.", "value": "35^b) %"},
      {"measurement": "Survival time (T/C, %)", "setting": "Sa37 sarcoma; 30 mg/kg p.o., tox - toxic dose", "value": "tox"}
    ]},
    {"compound": "MITOXANTRON", "values": [
      {"measurement": "IC50", "setting": "Yoshida ascites cells; Precursor [6-3H]Thymidine, read-out: IC 50", "value": 25, "unit": "µM"},
      {"measurement": "IC50", "setting": "Yoshida ascites cells; Precursor [Uracil-U-14C]uridine, read-out: IC 50", "value": 23, "unit": "µM"}
    ]},
    {"compound": "Cl.O=C1c2ccccc2-c2c1c1ccccc1c(=O)n2CCNCCO", "note": "[I (X=2) Hydrochloride, 6-[2-(2-hydroxyethyl)aminoethyl]-5,11-dioxo-5,6-dihydro-11H-indeno[1,2-c]isoquinoline hydrochloride]", "values": [
      {"measurement": "IC50", "setting": "Yoshida ascites cells; Rattus norvegicus, YOSHIDA, Precursor [6-3H]Thymidine, read-out: IC 50", "value": 5, "unit": "µM"},
      {"measurement": "IC50", "setting": "Yoshida ascites cells; Rattus norvegicus, YOSHIDA, Precursor [Uracil-U-14C]uridine, read-out: IC 50", "value": 7, "unit": "µM"},
      {"measurement": "survival", "setting": "leukemia P388", "value": "highly significant increase of survival"}
    ]}
  ]
}
